# Assay results from patent US5994629A, “Positive selection” (priority 1991, dated 1999).
# Counter-ions that a name gives are not always drawn. Like-named read-outs stand apart in the source and are kept apart here.
# What was measured:
# Solubility = format: physicochemical; settings: for solubility: organic solvent or mixture
# [1] = system: leaf discs of tobacco without (GUS-) introduced β-glucuronidase genes; format: cell-based, Nicotiana tabacum 'Wisconsin 38'; settings: test compounds at several concentrations up to 250 μM in MSO
# [2] = system: leaf discs of tobacco with (GUS+) introduced β-glucuronidase genes; format: cell-based, Nicotiana tabacum 'Wisconsin 38'; settings: test compounds at several concentrations up to 250 μM in MSO
# [3] = target: β-glucuronidase from E. coli (Escherichia coli, UniProt P05804); experiment: Hydrolysis by β-glucuronidase (GUS), HPLC/TLC; format: biochemical
# Protocol: […] […] This confirms the identity of the product as a conjugate of BA and β-D-glucuronic acid.
# […] The presence of hydrolysis products is then determined using HPLC and TLC.
# potato stem segments [4] = experiment: Carbohydrate sources, potato stem segments, 9 weeks; format: cell-based; settings: for # of Shoots per explant / activity at 5000 µg/mL / activity at 10000 µg/mL: 9 weeks; for activity at 5000 µg/mL / activity at 10000 µg/mL: Solanum tuberosum
# Excerpt: Similar results are observed with potato stem segments after 9 weeks of culturing.
# [5] = system: potato stem segments with pAH-Xyl; experiment: Selection on D-xylose, potato transformed with pAH-Xyl; format: cell-based
# Protocol: (§1) Shoots are regenerated from potato stem segments treated with various concentrations of sucrose and D-xylose. The number of shoots are counted after 11 weeks of selection. 105 explants are tested per treatment.
# [6] = system: potato stem segments with control (Kanamycin resistant gene); experiment: Selection on D-xylose, potato transformed with control (kanamycin resistant gene); format: cell-based
# Protocol: as §1
# potato stem segments [7] = experiment: D-xylose as carbohydrate source during shoot regeneration; format: cell-based
# Protocol: Explants are produced and treated as described above under "selection of transformed tissue", except that the selection/regeneration substrate was not supplemented with kanamycin or cabenicillin, and that plant tissue is not transformed. Thus the only subcultivation step is when the explants are transferred from the co-cultivation substrate to the selection/regeneration substrate which is supplemented with xylose at the concentrations indicated below. The number of regenerated shoots is recorded after 12 weeks.
# [8] = system: sugarbeet cotyledon explants; experiment: Effect of D-xylose in sugarbeets with and without light; format: cell-based
# Protocol: Sugarbeet is transformed by the so-called cot-pet method as described in PCT Patent Application No. PCT DK92/00108 wherein cotyledons including the petiole are used as explants. Seedlings are derived from seeds germinated and grown for 4-7 weeks at 12° C. in a 16 h day/8 h night regime. Cotyledons are excised 2-3 mm below the node, tawn apart and cultured either in the dark or in light and in the presence or absence of xylose.
# [9] = system: non-transformed potato stem segments; experiment: Inhibition by mannose of regeneration of shoots; format: cell-based, Solanum tuberosum; settings: mannose 0 g/l
# Protocol: This substrate is referred to hereafter as "selection/regeneration substrate". Regenerated plants are produced as described above, except that the shoot segments are not co-cultured with bacteria and the washing procedure consequential thereon is omitted. […] In general, mannose cannot be used as a carbohydrate source in most plant species. When mannose is added to plants it is metabolized and mannose 6-phosphate accumulates. Mannose 6-phosphate can be converted to fructose 6-phosphate by mannose 6-phosphate isomerase, the amount converted being dependent upon the activity of the isomerase. Such fructose 6-phosphate may be utilized by plants, but in principal high levels of mannose (whether or not an alternative carbohydrate source is available) are toxic to plants.
# explants = experiment: Inhibition of the toxicity of mannose by methyl-3-O-glucose; format: cell-based; settings: MOG 0 g/l; mannose 0 g/l; sucrose 10 g/l
# Excerpt: Example 25 is repeated except that the selection/regeneration substrate is supplemented with methyl 3-0-glucose (MOG) at the concentrations indicated in Table 25. The percentage of live explants is registered after 8 weeks.
# Wild type explants = experiment: Shoot regeneration on mannose, sucrose and methyl-3-O-glucose, wild type; format: cell-based; settings: sucrose 10 g/l, no mannose, no methyl 3O-glucose; Wild type tissue
# [10] = system: explants transgenic for the mannose 6-phosphate isomerase gene; experiment: Shoot regeneration on mannose, sucrose and methyl-3-O-glucose, Man-6-P-isomerase; format: cell-based; settings: sucrose 10 g/l, no mannose, no methyl 3O-glucose; Transgenic tissue
# [11] = 10 g/l, read-out: Size % of control
# [12] = 10 g/l, read-out: explants alive % of control
# [13] = sucrose 2.5 g/l, D-xylose 2.5 g/l
# [14] = sucrose 2.5 g/l, D-xylose 2.5 g/l, 11 weeks, 105 explants
# [15] = sucrose 2.5 g/l, D-xylose 5.0 g/l
# [16] = sucrose 2.5 g/l, D-xylose 7.5 g/l
# [17] = sucrose 5.0 g/l, D-xylose 2.5 g/l
# [18] = sucrose 5.0 g/l, D-xylose 5.0 g/l
# [19] = sucrose 5.0 g/l, D-xylose 7.5 g/l
# [20] = sucrose 10.0 g/l, D-xylose 2.5 g/l
# [21] = sucrose 10.0 g/l, D-xylose 5.0 g/l
# [22] = sucrose 10.0 g/l, D-xylose 7.5 g/l
# [23] = D-xylose 10 g/l, sucrose 0 g/l, 2 weeks in dark and 1 week in light
# [24] = D-xylose 10 g/l, sucrose 0 g/l, 3 weeks light
# [25] = D-xylose 10 g/l, sucrose 10 g/l, 2 weeks in dark and 1 week in light
# [26] = D-xylose 10 g/l, sucrose 10 g/l, 3 weeks light
# [27] = D-xylose 0 g/l, sucrose 10 g/l, 2 weeks in dark and 1 week in light
# [28] = D-xylose 0 g/l, sucrose 10 g/l, 3 weeks light
# β-glucuronidase from E. coli, sequence (P05804 whole entry, looked up): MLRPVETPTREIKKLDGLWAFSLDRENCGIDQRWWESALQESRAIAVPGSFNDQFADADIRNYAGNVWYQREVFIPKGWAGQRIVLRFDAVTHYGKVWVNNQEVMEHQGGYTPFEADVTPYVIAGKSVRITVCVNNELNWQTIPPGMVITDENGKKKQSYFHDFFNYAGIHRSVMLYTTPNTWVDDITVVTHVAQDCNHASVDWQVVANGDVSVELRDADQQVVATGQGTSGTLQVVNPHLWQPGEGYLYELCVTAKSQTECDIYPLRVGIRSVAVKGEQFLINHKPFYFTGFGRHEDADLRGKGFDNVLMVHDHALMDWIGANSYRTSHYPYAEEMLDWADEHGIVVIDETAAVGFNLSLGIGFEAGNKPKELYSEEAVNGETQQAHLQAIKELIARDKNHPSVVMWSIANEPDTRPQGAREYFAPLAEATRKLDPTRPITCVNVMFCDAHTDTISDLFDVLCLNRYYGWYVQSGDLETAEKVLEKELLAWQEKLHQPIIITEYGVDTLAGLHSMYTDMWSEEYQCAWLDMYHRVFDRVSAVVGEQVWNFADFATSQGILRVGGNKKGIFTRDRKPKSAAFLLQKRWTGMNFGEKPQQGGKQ
smiles,measurement,setting,value
"NC(=O)[C@H]1O[C@@H](n2cnc(NCc3ccccc3)c3ncnc2-3)[C@H](O)[C@@H](O)[C@@H]1O [BA3GNamide, 3-β-D-glucupyranuronamido-6-benzylaminopurine]",solubility,Solubility; 50% aqueous methanol containing 25% acetic acid,2400 µg/mL
same,solubility in words,Solubility; water or alcohol,only sparingly soluble
same,"Shoot formation, GUS-",[1],"+ (""+"" means shoot formation at concentrations below 250 μM)"
same,"Shoot formation, GUS+",[2],"+ (""+"" means shoot formation at concentrations below 250 μM)"
"O=C(O)C=Cc1ccccc1O[C@@H]1O[C@H](C(=O)O)[C@@H](O)[C@H](O)[C@H]1O [CouGN, 2-hydroxycinnamyl-β-D-glucopyranuronic acid]",conversion to o-coumaric acid by GUS,"[3]; 5 mg in 1 ml, 1000 units Sigma Type G5897, 12 hours, 37° C., TLC",93.4%
same,solubility,"Solubility; aqueous buffer and 50% alcohol, aqueous buffer, pH 7, and 50% aqueous alcohol",5000 µg/mL
O=C[C@H](O)[C@@H](O)[C@H](O)CO [D-xylose],# of Shoots per explant,potato stem segments [4]; 5 g/l,0
same,# of Shoots per explant,potato stem segments [4]; 10 g/l,0
same,activity at 5000 µg/mL,"potato stem segments [4]; 5 g/l, read-out: Size % of control",17%
same,activity at 5000 µg/mL,"potato stem segments [4]; 5 g/l, read-out: explants alive % of control",0%
same,activity at 10000 µg/mL,potato stem segments [4]; [11],13%
same,activity at 10000 µg/mL,potato stem segments [4]; [12],0%
same,"effect on shoot regeneration, in words",potato stem segments [4]; potato stem segments when sucrose is present,inhibitor of shoot regeneration
same,GUS+ Shoots,[5]; [13],0
same,GUS+ Shoots/explants,[5]; [13],0
same,No. Shoots,[5]; [14],0
same,GUS+ Shoots,[5]; [15],0
same,GUS+ Shoots/explants,[5]; [15],0
same,No. Shoots,[5]; [15],0
same,GUS+ Shoots,[5]; [16],0
same,GUS+ Shoots/explants,[5]; [16],0
same,No. Shoots,[5]; [16],0
same,GUS+ Shoots,[5]; [17],0
same,GUS+ Shoots/explants,[5]; [17],0
same,No. Shoots,[5]; [17],0
same,GUS+ Shoots,[5]; [18],0
same,GUS+ Shoots/explants,[5]; [18],0
same,No. Shoots,[5]; [18],0
same,GUS+ Shoots,[5]; [19],0
same,GUS+ Shoots/explants,[5]; [19],0
same,No. Shoots,[5]; [19],0
same,GUS+ Shoots,[5]; [20],5
same,GUS+ Shoots/explants,[5]; [20],0.05
same,GUS+ shoots/no. Shoots (%),[5]; [20],6%
same,No. Shoots,[5]; [20],84
same,GUS+ Shoots,[5]; [21],0
same,GUS+ Shoots/explants,[5]; [21],0
same,GUS+ shoots/no. Shoots (%),[5]; [21],0%
same,No. Shoots,[5]; [21],20
same,GUS+ Shoots,[5]; [22],4
same,GUS+ Shoots/explants,[5]; [22],0.04
same,GUS+ shoots/no. Shoots (%),[5]; [22],57.1%
same,No. Shoots,[5]; [22],7
same,GUS+ Shoots,[6]; [13],0
same,GUS+ Shoots/explants,[6]; [13],0
same,No. Shoots,[6]; [14],0
same,GUS+ Shoots,[6]; [15],0
same,GUS+ Shoots/explants,[6]; [15],0
same,No. Shoots,[6]; [15],0
same,GUS+ Shoots,[6]; [16],0
same,GUS+ Shoots/explants,[6]; [16],0
same,No. Shoots,[6]; [16],0
same,GUS+ Shoots,[6]; [17],0
same,GUS+ Shoots/explants,[6]; [17],0
same,No. Shoots,[6]; [17],0
same,GUS+ Shoots,[6]; [18],0
same,GUS+ Shoots/explants,[6]; [18],0
same,No. Shoots,[6]; [18],0
same,GUS+ Shoots,[6]; [19],0
same,GUS+ Shoots/explants,[6]; [19],0
same,No. Shoots,[6]; [19],0
same,GUS+ Shoots,[6]; [20],0
same,GUS+ Shoots/explants,[6]; [20],0
same,GUS+ shoots/no. Shoots (%),[6]; [20],0%
same,No. Shoots,[6]; [20],32
same,GUS+ Shoots,[6]; [21],0
same,GUS+ shoots/no. Shoots (%),[6]; [21],0%
same,No. Shoots,[6]; [21],5
same,GUS+ Shoots,[6]; [22],0
same,GUS+ Shoots/explants,[6]; [22],0
same,GUS+ shoots/no. Shoots (%),[6]; [22],0%
same,No. Shoots,[6]; [22],2
same,"inhibition of shoot regeneration, in words","potato stem segments [7]; when sucrose is present, compared to D-mannose",weak inhibitor of shoot regeneration
same,Number of regenerated shoots each stem segment,"potato stem segments [7]; xylose 5 g/l, sucrose 0 g/l, 12 weeks",0
same,Number of regenerated shoots each stem segment,"potato stem segments [7]; xylose 5 g/l, sucrose 10 g/l",3
same,Number of regenerated shoots each stem segment,"potato stem segments [7]; xylose 10 g/l, sucrose 0 g/l",0
same,Number of regenerated shoots each stem segment,"potato stem segments [7]; xylose 10 g/l, sucrose 10 g/l",0
same,Number of regenerated shoots each stem segment,"potato stem segments [7]; xylose 20 g/l, sucrose 0 g/l",0
same,Number of regenerated shoots each stem segment,"potato stem segments [7]; xylose 20 g/l, sucrose 10 g/l",0
same,% expl. with shoots,[8]; [23],13%
same,Green (%),[8]; [23],77%
same,weight (wet),[8]; [23],0.37 g
same,% expl. with shoots,[8]; [24],90%
same,Green (%),[8]; [24],90%
same,weight (wet),[8]; [24],1.53 g
same,% expl. with shoots,[8]; [25],80%
same,Green (%),[8]; [25],97%
same,weight (wet),[8]; [25],0.89 g
same,% expl. with shoots,[8]; [26],97%
same,Green (%),[8]; [26],100%
same,weight (wet),[8]; [26],5.47 g
"CC(C)=CCNc1nc(S[C@@H]2O[C@H](C(=O)O)[C@@H](O)[C@H](O)[C@H]2O)nc2[nH]cnc12 [IP2SGN sodium salt, 6-(3-methyl-but-2-enylamino)purine-2-yl-1-thio-β-D-glucopyranuronic acid, sodium salt]",partial removal of the glucuronide by GUS,"[3]; 2500 Fishman units, 48 hours, 37° C., HPLC",65%
same,solubility in words,Solubility; 50% aqueous alcohol,sparingly soluble
same,"Shoot formation, GUS-",[1],"+ (""+"" means shoot formation at concentrations below 250 μM)"
same,"Shoot formation, GUS+",[2],"+ (""+"" means shoot formation at concentrations below 250 μM)"
"C/C(=C\CNc1ncnc2[nH]cnc12)CO[C@@H]1O[C@H](C(=O)O)[C@@H](O)[C@H](O)[C@H]1O [ZOGN sodium salt, O-β-D-glucopyranuronosylzeatin, sodium salt]","Hydrolysis by β-glucuronidase (GUS), result in words","[3]; 50 mM sodium phosphate buffer pH 7.0, 37° C., HPLC/TLC",virtually complete conversion to trans zeatin
same,"Shoot formation, GUS-",[1],"+ (""+"" means shoot formation at concentrations below 250 μM)"
same,"Shoot formation, GUS+",[2],"+ (""+"" means shoot formation at concentrations below 250 μM)"
OC[C@H]1O[C@@](CO)(O[C@H]2O[C@H](CO)[C@@H](O)[C@H](O)[C@H]2O)[C@@H](O)[C@@H]1O [sucrose],Regenerated shoots/explant (%),[9]; sucrose 10 g/l,50%
same,Regenerated shoots/explant (%),[9]; sucrose 20 g/l,53%
same,# of Shoots per explant,potato stem segments [4]; 10 g/l,2.8
same,activity at 10000 µg/mL,potato stem segments [4]; [11],100%
same,activity at 10000 µg/mL,potato stem segments [4]; [12],100%
same,Number of regenerated shoots each stem segment,"potato stem segments [7]; xylose 0 g/l, sucrose 10 g/l",6
same,percentage of live explants,explants,100
same,% expl. with shoots,[8]; [27],50%
same,Green (%),[8]; [27],97%
same,weight (wet),[8]; [27],1.38 g
same,% expl. with shoots,[8]; [28],98%
same,Green (%),[8]; [28],100%
same,weight (wet),[8]; [28],7.41 g
same,Regeneration of shoots,Wild type explants,1.7 shoots/explant
same,Regeneration of shoots,[10],1.4 shoots/explant
